From ChEMBL document CHEMBL5506074, “Discovery and Optimization of Tetrahydroisoquinoline Derivatives To Enhance Lysosome Biogenesis as Preclinical Candidates for the Treatment of Alzheimer's Disease” (J Med Chem, 2024)
Active and inactive are the calls of the source. No cut-off for these calls is given here.

How the values were obtained:
[1] = test system: HeLa; test: Upregulation of CTSF mRNA expression in TFEB knockout human HeLa cells at 10 uM incubated for 24 hrs by qRT-PCR analysis; assay type: functional, cell-based
[2] = test system: HeLa; test: Upregulation of GLA mRNA expression in human HeLa cells at 10 uM incubated for 24 hrs by qRT-PCR analysis; assay type: functional, cell-based
[3] = Half life in ICR mouse at 10 mg/kg, ip measured upto 24 hrs by LC-MS/MS analysis; assay type: ADME, organism-based; conditions: in vivo
[4] = test system: HeLa; test: Upregulation of CTSF mRNA expression in human HeLa cells at 10 uM incubated for 24 hrs by qRT-PCR analysis; assay type: functional, cell-based
[5] = Ratio of drug concentration in ICR mouse brain to plasma at 5 mg/kg, iv measured upto 24 hrs by LC-MS/MS analysis; assay type: ADME, organism-based; conditions: brain and plasma, read-out: BPR
[6] = test system: Mus musculus; test: Anti-alzheimer activity against APP/PS1 mouse model assessed as reduction in time to locate hidden platform at 10 mg/kg, ip administered for 30 days by Morris water maze test; assay type: functional, organism-based; conditions: time 30.0 day
[7] = test system: HeLa; test: Upregulation of Atg16L1 mRNA expression in TFEB knockout human HeLa cells at 10 uM incubated for 24 hrs by qRT-PCR analysis; assay type: functional, cell-based
[8] = test system: HeLa; test: Upregulation of […] mRNA expression in TFEB knockout human HeLa cells at 10 uM incubated for 24 hrs by qRT-PCR analysis; assay type: functional, cell-based
[9] = AUC (0 to t) in ICR mouse at 10 mg/kg, ip measured upto 24 hrs by LC-MS/MS analysis; assay type: ADME, organism-based; conditions: in vivo
[10] = Acute toxicity in C57BL/6J mouse assessed as change in body weight at 50 mg/kg, ip measured upto 14 days; assay type: organism-based; conditions: in vivo, 336 h, time < 14 day
[11] = test system: HeLa; test: Upregulation of ATG2A mRNA expression in TFEB knockout human HeLa cells at 10 uM incubated for 24 hrs by qRT-PCR analysis; assay type: functional, cell-based
[12] = Induction of TFEB nuclear translocation in human HeLa cells expressing EGFP at 10 uM measured at 6 hrs by fluorescence microscopic analysis; assay type: functional
[13] = Induction of TFEB nuclear translocation in human HeLa cells expressing EGFP at 30 uM measured at 6 hrs by fluorescence microscopic analysis; assay type: functional
[14] = test system: HeLa; test: Induction of cell cycle arrest in human HeLa cells assessed as effect on CDK4 level at 10 uM incubated for 12 hrs by qRT-PCR analysis; assay type: functional, cell-based
[15] = Induction of TFEB nuclear translocation in human HeLa cells expressing EGFP at 30 uM measured at 3 hrs by fluorescence microscopic analysis; assay type: functional
[16] = test system: Mus musculus; test: Anti-alzheimer activity against APP/PS1 mouse model assessed as reduction in amyloid beta plaque in hippocampus at 10 mg/kg, ip administered for 30 days; assay type: functional; set-up: scale not given: the % may be the effect or the level left; conditions: time 30 day
[17] = test system: Mus musculus; test: Anti-alzheimer activity against APP/PS1 mouse model assessed as increase in time spent in the target quadrant at 10 mg/kg, ip administered for 30 days by Morris water maze test; assay type: functional, organism-based; conditions: time 30.0 day
[18] = target: Cyclin-dependent kinase 9 (Homo sapiens) (UniProt P50750); test: Inhibition of CDK9 in human SH-SY5Y cells assessed as decrease in Rpb1 phosphorylation at 10 uM incubated for 6 hrs by immunoblotting analysis; assay type: cell-based
Chain of Cyclin-dependent kinase 9 (Homo sapiens) (P50750 whole entry): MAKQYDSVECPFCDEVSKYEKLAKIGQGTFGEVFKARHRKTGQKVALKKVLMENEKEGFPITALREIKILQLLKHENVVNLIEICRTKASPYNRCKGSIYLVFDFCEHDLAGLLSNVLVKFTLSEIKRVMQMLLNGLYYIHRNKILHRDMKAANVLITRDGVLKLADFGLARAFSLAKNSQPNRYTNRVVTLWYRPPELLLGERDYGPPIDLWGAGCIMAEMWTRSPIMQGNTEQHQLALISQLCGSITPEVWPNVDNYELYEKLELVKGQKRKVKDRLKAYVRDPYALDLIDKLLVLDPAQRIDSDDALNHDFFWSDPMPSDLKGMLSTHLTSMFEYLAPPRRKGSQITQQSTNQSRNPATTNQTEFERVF

[19] = Clearance in ICR mouse at 5 mg/kg, iv measured upto 24 hrs by LC-MS/MS analysis; assay type: ADME, organism-based; conditions: in vivo
[20] = Tmax in ICR mouse at 10 mg/kg, ip measured upto 24 hrs by LC-MS/MS analysis; assay type: ADME, organism-based; conditions: in vivo
[21] = test system: HeLa; test: Upregulation of […] mRNA expression in human HeLa cells at 10 uM incubated for 24 hrs by qRT-PCR analysis; assay type: functional, cell-based
[22] = test system: Mus musculus; test: Anti-alzheimer activity against APP/PS1 mouse model assessed as upregulation of ATG16L1 mRNA expression in brain at 10 mg/kg, ip administered for 30 days; assay type: functional, organism-based; conditions: time 30.0 day
[23] = test system: HeLa; test: Upregulation of CTSD mRNA expression in human HeLa cells at 10 uM incubated for 24 hrs by qRT-PCR analysis; assay type: functional, cell-based
[24] = Acute toxicity in C57BL/6J mouse assessed as heart damage at 50 mg/kg, ip measured upto 14 days H and E staining based analysis; assay type: organism-based; conditions: in vivo, 336 h, time < 14 day
[25] = test system: SH-SY5Y; test: Cytotoxicity against human SH-SY5Y cells assessed as effect on cell viability at 10 uM incubated for 24 hrs; assay type: functional, cell-based
[26] = test system: Primary neocortical neuron; test: Cytotoxicity against mouse Primary neocortical neuron cells assessed as effect on cell viability at 10 uM incubated for 24 hrs; assay type: functional, cell-based
[27] = test system: HeLa; test: Upregulation of HEXA mRNA expression in human HeLa cells at 10 uM incubated for 24 hrs by qRT-PCR analysis; assay type: functional, cell-based
[28] = test system: HeLa; test: Upregulation of GLA mRNA expression in TFEB knockout human HeLa cells at 10 uM incubated for 24 hrs by qRT-PCR analysis; assay type: functional, cell-based
[29] = Cmax in ICR mouse at 20 mg/kg, po measured upto 24 hrs by LC-MS/MS analysis; assay type: ADME, organism-based; conditions: in vivo
[30] = test system: HeLa; test: Upregulation of OPTN mRNA expression in TFEB knockout human HeLa cells at 10 uM incubated for 24 hrs by qRT-PCR analysis; assay type: functional, cell-based
[31] = test system: HeLa; test: Upregulation of p62 mRNA expression in TFEB knockout human HeLa cells at 10 uM incubated for 24 hrs by qRT-PCR analysis; assay type: functional, cell-based
[32] = Acute toxicity in C57BL/6J mouse assessed as kidney damage at 50 mg/kg, ip measured upto 14 days H and E staining based analysis; assay type: organism-based; conditions: in vivo, 336 h, time < 14 day
[33] = test system: HeLa; test: Induction of cell cycle arrest in human HeLa cells assessed as effect on LAMP1 level at 10 uM incubated for 12 hrs by qRT-PCR analysis; assay type: functional, cell-based
[34] = test system: Mus musculus; test: Anti-alzheimer activity against APP/PS1 mouse model assessed as reduction in amyloid beta 42 plaque in cortex at 10 mg/kg, ip administered for 30 days; assay type: functional; set-up: scale not given: the % may be the effect or the level left; conditions: time 30 day
[35] = test system: Mus musculus; test: Anti-alzheimer activity against APP/PS1 mouse model assessed as upregulation of CTSF mRNA expression in brain at 10 mg/kg, ip administered for 30 days; assay type: functional, organism-based; conditions: time 30.0 day
[36] = Volume of distribution at steady state in ICR mouse measured upto 24 hrs by LC-MS/MS analysis; assay type: ADME; conditions: in vivo, read-out: Vdss
[37] = test system: HeLa; test: Upregulation of LC3B mRNA expression in human HeLa cells at 10 uM incubated for 24 hrs by qRT-PCR analysis; assay type: functional, cell-based
[38] = AUC (0 to t) in ICR mouse at 20 mg/kg, po measured upto 24 hrs by LC-MS/MS analysis; assay type: ADME, organism-based; conditions: in vivo
[39] = AUC (0 to t) in ICR mouse at 5 mg/kg, iv measured upto 24 hrs by LC-MS/MS analysis; assay type: ADME, organism-based; conditions: in vivo
[40] = test system: Mus musculus; test: Anti-alzheimer activity against APP/PS1 mouse model assessed as upregulation of CTSB mRNA expression in brain at 10 mg/kg, ip administered for 30 days; assay type: functional, organism-based; conditions: time 30.0 day

Row | SMILES | Activity [1] | Activity [2] | half-life [3] [h] | Activity [4] | Kp at 24 h [5] | Activity [6] | Activity [7] | Activity [8] | AUC(0-t) at 24 h [9] [ng·h/mL] | Activity [10] | Activity [11] | Activity [12] [%] | Activity [13] [%] | Activity [14] | Activity [15] [%] | Activity [16] [%] | Activity [17] | inhibition [18] | clearance [19] [mL/min/kg] | Tmax [20] [h] | also measured
1 | c1ccc2c(CCC3NCCc4cc5c(cc43)OCO5)c[nH]c2c1 (stereo not given) | Active | Active | 2.05 | Active | 2.8 | Active | Active | Active | 7640 | Non-Toxic | Active | 51 | 98 | inactive | 97 | 67.5 | Active | Active | 30.3 | 0.05 | Activity [21]: Active; Activity [22]: Active; Activity [23]: Active; Activity [24]: Non-Toxic; Activity [25]: Active; Activity [26]: Active; Activity [27]: Active; Activity [28]: Active; Cmax [29]: 4030 ng/mL; Activity [30]: Active; Activity [31]: Active; Activity [32]: Non-Toxic; Activity [33]: inactive; Activity [34]: 47%; Activity [35]: Active; Vd [36]: 4.51 L/kg; Activity [37]: Active; AUC(0-t) at 24 h ([38]; ICR): 17100 ng·h/mL; AUC(0-t) at 24 h ([39]; ICR): 3310 ng·h/mL; Activity [40]: Active
2 | Fc1ccc2[nH]cc(CCC3c4cc5c(cc4CCN3CC3CCOCC3)OCO5)c2c1 (stereo not given) | Active | Active | 1.17 | Active | 6.9 | Active | Active | Active | 210 | Non-Toxic | Active | 79 | 98 | inactive | 94 | 69.8 | Active | Active | 204 | 1.35 | Activity [21]: Active; Activity [22]: Active; Activity [23]: Active; Activity [24]: Non-Toxic; Activity [25]: Active; Activity [26]: Active; Activity [27]: Active; Activity [28]: Active; Cmax [29]: 9.49 ng/mL; Activity [30]: Active; Activity [31]: Active; Activity [32]: Non-Toxic; Activity [33]: inactive; Activity [34]: 36.3%; Activity [35]: Active; Vd [36]: 36.8 L/kg; Activity [37]: Active; AUCt ([38]; po, 20 mg/kg, 24 h): 17.4 ng·h/mL; AUCt ([39]; iv, 5 mg/kg, 24 h): 409 ng·h/mL; Activity [40]: Active
